Results as given in ChEMBL document CHEMBL3525969 (Drug Metab Dispos, 2011).
One block for each molecule: values may come before it.

Experiments:
CYP3A4 [1] = biological target: T1, CYP3A4 (Homo sapiens, UniProt P08684); assay: Inhibition of human His-tagged CYP3A4 expressed in Escherichia coli TOPP3 using BFC as substrate assessed as residual activity after 30 mins by fluorescence assay in presence of NADPH and cytochrome b5 relative to control; format: ADME; conditions: probe BFC, read-out: Activity
Cytochrome P450 3A4 [2] = biological target: T2, Cytochrome P450 3A4 (Homo sapiens, UniProt P08684); assay: Inhibition of human His-tagged CYP3A4 expressed in Escherichia coli TOPP3 using BFC as substrate after 15 mins by fluorescence assay in presence of NADPH and cytochrome b5; format: ADME; conditions: 0.25 h
CYP3A4 [3] = biological target: T1, CYP3A4; assay: Inhibition of human His-tagged CYP3A4 expressed in Escherichia coli TOPP3 using BFC as substrate at 100 uM after 30 mins in presence of NADPH and cytochrome b5; format: ADME; conditions: probe BFC
CYP3A4 [4] = biological target: T1, CYP3A4; assay: Inhibition of human His-tagged CYP3A4 expressed in Escherichia coli TOPP3 using BFC as substrate at 100 uM after 30 mins by spectrophotometry in presence of NADPH and cytochrome b5 relative to control; format: ADME; conditions: probe BFC
Cytochrome P450 3A4 [5] = biological target: T2, Cytochrome P450 3A4; assay: Inhibition of His-tagged CYP3A4 (unknown origin) expressed in Escherichia coli TOPP3 using BFC as substrate after 15 mins by fluorescence assay in presence of NADPH and cytochrome b5; format: ADME; conditions: 0.25 h
Cytochrome P450 2D6 [6] = biological target: T3, Cytochrome P450 2D6 (Homo sapiens, UniProt P10635); assay: Inhibition of human His-tagged CYP2D6 expressed in Escherichia coli TOPP3 using 7-ethoxy-4-(trifluoromethyl)coumarin as substrate after 15 mins by fluorescence assay in presence of NADPH; format: ADME; conditions: 0.25 h
CYP3A5 [7] = biological target: T4, CYP3A5 (Homo sapiens, UniProt P20815); assay: Inhibition of human His-tagged CYP3A5 expressed in Escherichia coli TOPP3 using BFC as substrate assessed as residual activity after 20 mins by fluorescence assay in presence of NADPH and cytochrome b5 relative to control; format: ADME; conditions: probe BFC, read-out: Activity
CYP3A4 [8] = biological target: T1, CYP3A4; assay: Inhibition of human His-tagged CYP3A4 expressed in Escherichia coli TOPP3 using BFC as substrate assessed as residual activity after 10 mins by fluorescence assay in presence of NADPH and cytochrome b5 relative to control; format: ADME; conditions: probe BFC, read-out: Activity
Cytochrome P450 3A5 [9] = biological target: T5, Cytochrome P450 3A5 (Homo sapiens, UniProt P20815); assay: Inhibition of human His-tagged CYP3A5 expressed in Escherichia coli TOPP3 using BFC as substrate after 15 mins by fluorescence assay in presence of NADPH; format: ADME; conditions: 0.25 h
Cytochrome P450 3A5 [10] = biological target: T5, Cytochrome P450 3A5; assay: Inhibition of human His-tagged CYP3A5 expressed in Escherichia coli TOPP3 using BFC as substrate after 15 mins by fluorescence assay in presence of NADPH and cytochrome b5; format: ADME; conditions: 0.25 h
Cytochrome P450 2D6 [11] = biological target: T3, Cytochrome P450 2D6; assay: Inhibition of human His-tagged CYP2D6 expressed in Escherichia coli TOPP3 using 7-ethoxy-4-(trifluoromethyl)coumarin as substrate after 15 mins by fluorescence assay in presence of NADPH and cytochrome b5; format: ADME; conditions: 0.25 h
Cytochrome P450 3A4 [12] = biological target: T2, Cytochrome P450 3A4; assay: Inhibition of His-tagged CYP3A4 (unknown origin) expressed in Escherichia coli TOPP3 using BFC as substrate after 15 mins by fluorescence assay in presence of NADPH; format: ADME; conditions: 0.25 h
CYP3A5 [13] = biological target: T4, CYP3A5; assay: Inhibition of human His-tagged CYP3A5 expressed in Escherichia coli TOPP3 using BFC as substrate assessed as residual activity after 30 mins by fluorescence assay in presence of NADPH and cytochrome b5 relative to control; format: ADME; conditions: probe BFC, read-out: Activity
Cytochrome P450 2B6 [14] = biological target: T6, Cytochrome P450 2B6 (Homo sapiens, UniProt P20813); assay: Inhibition of human His-tagged CYP2B6 expressed in Escherichia coli TOPP3 using 7-ethoxy-4-(trifluoromethyl)coumarin as substrate after 15 mins by fluorescence assay in presence of NADPH; format: ADME; conditions: 0.25 h
T6 sequence (P20813 whole entry): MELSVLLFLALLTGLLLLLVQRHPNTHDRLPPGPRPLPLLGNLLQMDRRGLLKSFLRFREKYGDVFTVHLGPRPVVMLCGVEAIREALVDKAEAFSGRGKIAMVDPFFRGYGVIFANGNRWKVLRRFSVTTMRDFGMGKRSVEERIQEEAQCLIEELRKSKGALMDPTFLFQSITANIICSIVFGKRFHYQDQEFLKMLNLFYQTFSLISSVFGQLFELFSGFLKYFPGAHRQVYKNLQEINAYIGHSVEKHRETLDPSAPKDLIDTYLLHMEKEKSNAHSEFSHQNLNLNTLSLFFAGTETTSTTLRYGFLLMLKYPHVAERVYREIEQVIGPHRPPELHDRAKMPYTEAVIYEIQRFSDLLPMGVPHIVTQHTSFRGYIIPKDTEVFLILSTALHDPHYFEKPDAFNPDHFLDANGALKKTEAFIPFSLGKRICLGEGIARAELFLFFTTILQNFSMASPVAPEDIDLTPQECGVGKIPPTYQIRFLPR

Cytochrome P450 3A4 [15] = biological target: T2, Cytochrome P450 3A4; assay: Inhibition of human His-tagged CYP3A4 expressed in Escherichia coli TOPP3 using BFC as substrate at 10 to 100 uM by fluorescence assay in presence of NADPH and cytochrome b5; format: ADME; conditions: TDE = time-dependent effect
CYP3A4 [16] = biological target: T1, CYP3A4; assay: Inhibition of human His-tagged CYP3A4 expressed in Escherichia coli TOPP3 using BFC as substrate assessed as residual activity by fluorescence assay in presence of cytochrome b5; format: ADME; conditions: probe BFC
CYP3A5 [17] = biological target: T4, CYP3A5; assay: Inhibition of human His-tagged CYP3A5 expressed in Escherichia coli TOPP3 using BFC as substrate assessed as residual activity by fluorescence assay in presence of cytochrome b5; format: ADME; conditions: probe BFC
Cytochrome P450 3A4 [18] = biological target: T2, Cytochrome P450 3A4; assay: Inhibition of human His-tagged CYP3A4 expressed in Escherichia coli TOPP3 using BFC as substrate assessed as unmodified heme at 100 uM after 30 mins by HPLC analysis in presence of NADPH and cytochrome b5; format: ADME; conditions: 0.5 h
Cytochrome P450 2B6 [19] = biological target: T6, Cytochrome P450 2B6; assay: Inhibition of human His-tagged CYP2B6 expressed in Escherichia coli TOPP3 using 7-ethoxy-4-(trifluoromethyl)coumarin as substrate after 15 mins by fluorescence assay in presence of NADPH and cytochrome b5; format: ADME; conditions: 0.25 h
Cytochrome P450 3A4 [20] = biological target: T2, Cytochrome P450 3A4; assay: Inhibition of human His-tagged CYP3A4 expressed in Escherichia coli TOPP3 using BFC as substrate at 100 uM after 30 mins by spectrophotometry in presence of cytochrome b5; format: ADME; conditions: 0.5 h
CYP3A4 [21] = biological target: T1, CYP3A4; assay: Inhibition of human His-tagged CYP3A4 expressed in Escherichia coli TOPP3 using BFC as substrate assessed as residual activity after 20 mins by fluorescence assay in presence of NADPH and cytochrome b5 relative to control; format: ADME; conditions: probe BFC, read-out: Activity
CYP3A5 [22] = biological target: T4, CYP3A5; assay: Inhibition of human His-tagged CYP3A5 expressed in Escherichia coli TOPP3 using BFC as substrate assessed as residual activity after 10 mins by fluorescence assay in presence of NADPH and cytochrome b5 relative to control; format: ADME; conditions: probe BFC, read-out: Activity
[23] = Cmax in human; format: ADME, organism-based; conditions: in vivo
CYP3A4 [24] = biological target: T1, CYP3A4; assay: Ratio of Kinact to Ki for CYP3A4 (unknown origin); format: ADME

T1 sequence (P08684 whole entry): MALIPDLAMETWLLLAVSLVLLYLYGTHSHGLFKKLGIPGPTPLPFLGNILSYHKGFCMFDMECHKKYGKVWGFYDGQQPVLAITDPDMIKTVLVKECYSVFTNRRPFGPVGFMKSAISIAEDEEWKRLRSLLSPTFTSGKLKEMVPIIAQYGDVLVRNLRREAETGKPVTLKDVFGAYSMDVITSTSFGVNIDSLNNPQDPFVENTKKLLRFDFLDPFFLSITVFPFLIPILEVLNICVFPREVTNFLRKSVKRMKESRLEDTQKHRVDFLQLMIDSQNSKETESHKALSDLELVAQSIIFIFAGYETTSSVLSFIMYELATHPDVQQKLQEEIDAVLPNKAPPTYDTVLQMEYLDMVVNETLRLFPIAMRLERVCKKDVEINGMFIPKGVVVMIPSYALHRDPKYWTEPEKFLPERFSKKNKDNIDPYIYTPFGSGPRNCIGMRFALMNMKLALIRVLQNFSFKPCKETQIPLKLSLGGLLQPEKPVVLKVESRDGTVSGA
T2 sequence (P08684 whole entry): as above
T4 sequence (P20815 whole entry): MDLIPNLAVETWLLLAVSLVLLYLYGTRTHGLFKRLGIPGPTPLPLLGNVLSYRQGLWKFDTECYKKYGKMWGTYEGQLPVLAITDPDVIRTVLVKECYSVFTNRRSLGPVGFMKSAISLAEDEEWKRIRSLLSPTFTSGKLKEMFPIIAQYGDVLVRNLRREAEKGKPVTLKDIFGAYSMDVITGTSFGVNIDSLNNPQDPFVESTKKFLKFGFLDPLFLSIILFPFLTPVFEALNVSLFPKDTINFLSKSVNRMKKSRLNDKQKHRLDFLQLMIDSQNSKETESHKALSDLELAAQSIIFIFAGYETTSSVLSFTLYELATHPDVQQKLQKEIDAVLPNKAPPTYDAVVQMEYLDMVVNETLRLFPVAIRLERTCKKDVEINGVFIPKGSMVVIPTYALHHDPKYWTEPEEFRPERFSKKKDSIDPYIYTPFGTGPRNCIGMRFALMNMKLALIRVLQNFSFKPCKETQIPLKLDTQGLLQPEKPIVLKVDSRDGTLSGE
T3 sequence (P10635 whole entry): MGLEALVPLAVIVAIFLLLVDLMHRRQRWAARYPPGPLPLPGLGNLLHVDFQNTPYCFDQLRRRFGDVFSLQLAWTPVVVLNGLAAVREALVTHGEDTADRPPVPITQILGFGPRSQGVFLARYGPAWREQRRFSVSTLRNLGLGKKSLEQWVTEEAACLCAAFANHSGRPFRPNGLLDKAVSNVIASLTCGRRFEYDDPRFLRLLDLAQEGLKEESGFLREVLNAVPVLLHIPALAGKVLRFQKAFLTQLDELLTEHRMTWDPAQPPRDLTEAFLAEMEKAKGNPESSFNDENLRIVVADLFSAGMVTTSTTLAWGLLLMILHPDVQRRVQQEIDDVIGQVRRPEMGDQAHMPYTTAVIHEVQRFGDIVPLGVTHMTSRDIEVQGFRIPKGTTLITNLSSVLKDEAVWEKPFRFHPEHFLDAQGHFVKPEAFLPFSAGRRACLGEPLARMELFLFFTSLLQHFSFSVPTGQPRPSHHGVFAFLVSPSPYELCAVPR
T5 sequence (P20815 whole entry): as the sequence (P20815 whole entry) above

activity at 0.5 h (CYP3A4 [1]): 39%
inhibition (INH) (Cytochrome P450 3A4 [2]): Dose-dependent effect
inhibition at 0.5 h, 100 µM (CYP3A4 [3]): 75%
inhibition at 0.5 h, 100 µM (CYP3A4 [4]): 70%
inhibition (INH) (Cytochrome P450 3A4 [5]): Active
inhibition (INH) (Cytochrome P450 2D6 [6]): Not Active
activity at 20 min (CYP3A5 [7]): 109%
activity at 10 min (CYP3A4 [8]): 71%
inhibition (INH) (Cytochrome P450 3A5 [9]): Not Active
inhibition (INH) (Cytochrome P450 3A5 [10]): Not Active
inhibition (INH) (Cytochrome P450 2D6 [11]): Not Active
inhibition (INH) (Cytochrome P450 3A4 [12]): Active
activity at 0.5 h (CYP3A5 [13]): 98%
inhibition (INH) (Cytochrome P450 2B6 [14]): Not Active
inhibition (INH) (Cytochrome P450 3A4 [15]): tde
activity (CYP3A4 [16]): 100%
activity (CYP3A5 [17]): 100%
inhibition (INH) (Cytochrome P450 3A4 [18]): Active
inhibition (INH) (Cytochrome P450 2B6 [19]): Not Active
inhibition (INH) (Cytochrome P450 3A4 [20]): Not Active
activity at 20 min (CYP3A4 [21]): 50%
activity at 10 min (CYP3A5 [22]): 113%
Cmax [23]: 1700 nM
Compound: O=C(Nc1ccc(OC(F)(F)F)cc1)c1sccc1NCc1ccnc2ccccc12 [OSI-930]

kinact/KI (CYP3A4 [24]): 667 M⁻¹ s⁻¹
Compound: C#C[C@]1(O)CC[C@H]2[C@@H]3CCc4cc(O)ccc4[C@H]3CC[C@@]21C [ETHINYL ESTRADIOL]

kinact/KI (CYP3A4 [24]): 667 M⁻¹ s⁻¹
Compound: CC(C)=CCC/C(C)=C/COc1c2ccoc2cc2oc(=O)ccc12 [BERGAMOTTIN]

kinact/KI (CYP3A4 [24]): 333 M⁻¹ s⁻¹
Compound: CC/C(=C(\c1ccccc1)c1ccc(OCCN(C)C)cc1)c1ccccc1 [TAMOXIFEN]

kinact/KI (CYP3A4 [24]): 333 M⁻¹ s⁻¹
Compound: CC#C[C@]1(O)CC[C@H]2[C@@H]3CCC4=CC(=O)CCC4=C3[C@@H](c3ccc(N(C)C)cc3)C[C@@]21C [MIFEPRISTONE]
